Source: patent EP4159721A1, “CONDENSED 3,3-DIFLUORO-PIPERIDINE DERIVATIVES AS INHIBITORS OF CORONAVIRUSES 3-CHYMOTRYPSIN-LIKE PROTEASE” (Qubit Pharmaceuticals, priority 2021, dated 2023)
Read-outs that look alike come from different tables or passages of the source.

How the values were obtained:
SARS-CoV-2 3CLpro [1] = target: T1, SARS-CoV-2 3CLpro (Severe acute respiratory syndrome coronavirus 2, UniProt P0DTD1); assay: Binding assessment by Nuclear Magnetic Resonance (WaterLOGSY and STD); set-up: key: +++: strong binder; ++: binder; +/-: not to very low binder; details: NMR (WaterLOGSY, STD); 10 µM of 3CLpro, ligand 100 µM to 2 mM, pH=7.3
SARS-CoV-2 3CLpro [2] = target: T1, SARS-CoV-2 3CLpro; assay: FRET-based assay of 3CLpro inhibitory activity; format: biochemical
SARS-CoV-2 3CLpro [3] = target: T1, SARS-CoV-2 3CLpro; assay: Binding studies by Mass Spectrometry (ESI-MS, denaturing conditions); details: 10 µM 3CLpro, 1:1 or 10:1 compound:protein, 20 min at room temperature

Structure (SMILES) | Binding Activity (SARS-CoV-2 3CLpro [1]) | other results
CSc1ccc2c(c1)NCC(F)(F)C2O (single isomer, unassigned) [Compound 1 or 2, 3,3-difluoro-7-(methylsulfanyl)-1,2,3,4-tetrahydroquinolin-4-ol] | ++ | 
CSc1cc2c(cn1)C(O)C(F)(F)CN2 (single isomer, unassigned) [Compound 3 or 4, 3,3-difluoro-7-(methylsulfanyl)-1,2,3,4-tetrahydro-1,6-naphthyridin-4-ol] | +++ | 
CSc1ccc2c(c1)NC(=O)C(F)(F)C2O (single isomer, unassigned) [Compound 5 or 6, 3,3-difluoro-4-hydroxy-7-(methylsulfanyl)-1,2,3,4-tetrahydroquinolin-2-one] | +++ | 
CSc1cc2c(cn1)C(O)C(F)(F)C(=O)N2 (single isomer, unassigned) [Compound 7 or 8, 3,3-difluoro-4-hydroxy-7-(methylsulfanyl)-1,2,3,4-tetrahydro-1,6-naphthyridin-2-one] | ++ | 
CSc1ccc2c(c1)NC(=O)C(F)(F)C2C (single isomer, unassigned) [Compound 9 or 10, 3,3-difluoro-4-methyl-7-(methylsulfanyl)-1,2,3,4-tetrahydroquinolin-2-one] | +++ | 
CSc1ccc2c(c1)NCC(F)(F)C2C (single isomer, unassigned) [Compound 11 or 12, 3,3-difluoro-4-methyl-7-(methylsulfanyl)-1,2,3,4-tetrahydroquinoline] | ++ | 
O=C1Nc2cc(SC3CC3)ccc2C(O)C1(F)F (single isomer, unassigned) [Compound 15 or 16] | ++ | 
CSc1cc(F)c2c(c1)NC(=O)C(F)(F)C2O (single isomer, unassigned) [Compound 17 or 18] | ++ | 
Cc1nn(C)c2c1C(O)C(F)(F)C(=O)N2 (single isomer, unassigned) [Compound 19 or 20, 5,5-difluoro-4-hydroxy-1,3-dimethyl-1H,4H,5H,6H,7H-pyrazolo[3,4-b]pyridin-6-one] | ++ | 
CSc1cc2c(cn1)C(=O)C(F)(F)C(=O)N2 [Compound 13, 3,3-difluoro-7-(methylsulfanyl)-1,2,3,4-tetrahydro-1,6-naphthyridine-2,4-dione] |  | IC50 (SARS-CoV-2 3CLpro [2]): 2270 nM; Covalent binding (SARS-CoV-2 3CLpro [3]): Covalent binding is confirmed
CSc1ccc2c(c1)NC(=O)C(F)(F)C2=O [Compound 14, 3,3-difluoro-7-(methylsulfanyl)-1,2,3,4-tetrahydroquinoline-2,4-dione] |  | IC50 (SARS-CoV-2 3CLpro [2]; 0.02 µM 3CLpro, 5 µM peptide substrate, 20 minutes incubation at room temperature, triplicate, average and standard deviation, read-out: IC50): 830 nM; Covalent binding (SARS-CoV-2 3CLpro [3]): Covalent binding is confirmed
CSc1ccc2c(c1)NC(=O)CC2C (centres unmarked) [reference compound] | +/- | 
CSc1ccc2c(c1)NC(=O)CC2=O [reference compound] | +/- | 
O=C1Nc2ccccc2C(O)C1(F)F (centres unmarked) [reference compound] | +/- | 
CSc1ccc2c(c1)NC(=O)C(F)(F)C2(C)O (centres unmarked) [reference compound] | +/- | 
